From US8399378B2, “Use of neonicotinoids in pest control” (Syngenta Crop Protection LLC, priority 1998, dated 2013)

Columns and labels:
Format in all cases: in vivo
Spodoptera littoralis = test: Spray test on young cotton plants, action against Spodoptera littoralis larvae
Description: (§1) Young transgenic cotton plants which express the δ-endotoxin CryIIIA are sprayed with an aqueous emulsion spray mixture comprising 100, 50, 10, 5, 1 ppm of imidacloprid respectively. After the spray coating has dried on, the cotton plants are populated with 10 adult Anthonomus grandis, 10 Spodoptera littoralis larvae or 10 Heliothis virescens larvae respectively and introduced into a plastic container. Evaluation takes place 3 to 10 days later.
as §1, with “thiamethoxam” for “imidacloprid”
as §1, with “Ti-435” for “imidacloprid”
as §1, with “CryIa(c)” for “CryIIIA”, “Ti-435” for “imidacloprid”
as §1, with “CryIa(c)” for “CryIIIA”, “thiamethoxam” for “imidacloprid”
as §1, with “CryIa(c)” for “CryIIIA”

Ostrinia nubilalis = test: Maize plot spray test (KnockOut vs conventional maize), action against Ostrinia nubilalis; settings: 6 days
Method: (§2) A plot (a) planted with maize cv. KnockOut® and an adjacent plot (b) of the same size which is planted with conventional maize, both showing natural infestation with Ostrinia nubilalis, Spodoptera spp. or Heliothis, are sprayed with an aqueous emulsion spray mixture comprising 200, 100, 50, 10, 5, 1 ppm of Ti-435. Immediately afterwards, plot (b) is treated with an emulsion spray mixture comprising 200, 100, 50, 10, 5, 1 ppm of the endotoxin expressed by KnockOut®. Evaluation takes place 6 days later. The percentage reduction in population (% action) is determined by comparing the number of dead pests on the plants of plot (a) with that on the plants of plot (b).
as §2, with “thiamethoxam.” for “Ti-435.”
as §2, with “imidacloprid.” for “Ti-435.”

Nilaparvata lugens = test: Rice plant spray test, action against Nilaparvata lugens; settings: 20° C, 21 days; for control (percentage reduction in population, % action): infected, then spray 400 ppm; for control level: plot (b) conventional rice plants, 400 ppm compound
Method: (§3) Rice plants on a plot (a) expressing the δ-endotoxin CryIA(b) and conventional rice plants on a plot (b) are infected with Nilaparvata lugens, subsequently sprayed with a spray mixture comprising 400 ppm thiamethoxam. Immediately afterwards, plot (b) is treated with an emulsion spray mixture comprising 400 ppm of the δ-endotoxin CryIA(b). The seedlings of plot (a) and (b) are then incubated at 20° C. The test is evaluated after 21 days.
The percentage reduction in population (% action) is determined by comparing the number of dead pests on the plants of plot (a) with that on the plants of plot (b).
as §3, with “CryIA(c)” for “CryIA(b)”, “CryIA(c).” for “CryIA(b).”

Anthonomus grandis = test: Spray test on young cotton plants, action against Anthonomus grandis adults; settings: non-transgenic cotton treated with compound and conventional CryIIIA-toxin, each 100, 50, 10, 5, 1 ppm
Heliothis virescens = test: Spray test on young cotton plants, action against Heliothis virescens larvae; settings: non-transgenic cotton treated with compound and conventional CryIIIA-toxin, each 100, 50, 10, 5, 1 ppm
[1] = comparison arm for CryIIIA cotton
[2] = comparison arm for CryIa(c) cotton

Question: For CN1COCN(Cc2cnc(Cl)s2)/C1=N\[N+](=O)[O-] [thiamethoxam, 5-(2-Chlorthiazol-5-ylmethyl)-3-methyl-4-nitroimino-perhydro-1,3,5-oxadiazin], which “control of the tested insects (percentage reduction in population or feeding damage, % action)” value (Spodoptera littoralis; non-transgenic cotton treated with compound and conventional CryIIIA-toxin, each 100, 50, 10, 5, 1 ppm, comparison arm for CryIa(c) cotton) is on record?
Answer: insufficient

Question: And the “control of the tested insects (percentage reduction in population or feeding damage, % action)” value (Spodoptera littoralis; transgenic cotton expressing δ-endotoxin CryIa(c), spray 100, 50, 10, 5, 1 ppm, evaluation 3 to 10 days)?
Answer: superior

Question: What about the “control (percentage reduction in population, % action)” value (Ostrinia nubilalis; plot (a) maize cv. KnockOut, spray 200, 100, 50, 10, 5, 1 ppm, natural infestation) of the same molecule?
Answer: Improved control

Question: What about the control level (Ostrinia nubilalis; plot (b) conventional maize, compound 200, 100, 50, 10, 5, 1 ppm, then same ppm of the endotoxin expressed by KnockOut) of the same molecule?
Answer: ≤ 60%

Question: And the “control (percentage reduction in population, % action)” value (Nilaparvata lugens; plot (a) rice plants expressing δ-endotoxin CryIA(b))?
Answer: Improved control

Question: What about the “control (percentage reduction in population, % action)” value (Nilaparvata lugens; plot (a) rice plants expressing δ-endotoxin CryIA(c)) of the same molecule?
Answer: Improved control

Question: And the control level (Nilaparvata lugens; then 400 ppm δ-endotoxin CryIA(b))?
Answer: ≤ 60%

Question: What about the control level (Nilaparvata lugens; then 400 ppm δ-endotoxin CryIA(c)) of the same molecule?
Answer: ≤ 0%

Question: What about the “control of the tested insects (percentage reduction in population or feeding damage, % action)” value (Anthonomus grandis; [1]) of the same molecule?
Answer: insufficient

Question: And the “control of the tested insects (percentage reduction in population or feeding damage, % action)” value (Anthonomus grandis; [2])?
Answer: insufficient

Question: What about the “control of the tested insects (percentage reduction in population or feeding damage, % action)” value (Heliothis virescens; [1]) of the same molecule?
Answer: insufficient

Question: What about the “control of the tested insects (percentage reduction in population or feeding damage, % action)” value (Heliothis virescens; [2]) of the same molecule?
Answer: insufficient
